US9023789B2, “Amylin analogs and pharmaceutical compositions thereof” (Novo Nordisk A/S, priority 2012, dated 2015)
Numbered stars: 1 amine (or outer) side, 2 acyl side, 3 side chain; on linkers, the order of the positions; unused ones are H or OH. Bridge positions count the residues as written; N and C are the ends. Side chains are listed from the residue outwards. Peptide text beside a SMILES is read from it. * marks the point of attachment. C20 diacid = O=C(O)CCCCCCCCCCCCCCCCCCC(=O)*; γGlu = O=C(O)[C@H](CCC(=O)[*:2])N[*:1]

Key:
[1] = target: T1, human amylin receptor (membranes from Amylin 3(a)/CRE-luc cells) (Homo sapiens, UniProt O60896+P30988); test: ASSAY (V) binding to the human amylin receptor (SPA, 125I-rat amylin); conditions: for IC50: Table 4, read-out: hAmylin-R bind IC50;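 as to all read-outs here: competition binding of cell membranes (35 ng/µL) mixed with SPA beads in 384-well plates at 40 µL total volume, read by scintillation counting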
T1 construct: expressed in transfected cells
T1 sequence (P30988 25-474): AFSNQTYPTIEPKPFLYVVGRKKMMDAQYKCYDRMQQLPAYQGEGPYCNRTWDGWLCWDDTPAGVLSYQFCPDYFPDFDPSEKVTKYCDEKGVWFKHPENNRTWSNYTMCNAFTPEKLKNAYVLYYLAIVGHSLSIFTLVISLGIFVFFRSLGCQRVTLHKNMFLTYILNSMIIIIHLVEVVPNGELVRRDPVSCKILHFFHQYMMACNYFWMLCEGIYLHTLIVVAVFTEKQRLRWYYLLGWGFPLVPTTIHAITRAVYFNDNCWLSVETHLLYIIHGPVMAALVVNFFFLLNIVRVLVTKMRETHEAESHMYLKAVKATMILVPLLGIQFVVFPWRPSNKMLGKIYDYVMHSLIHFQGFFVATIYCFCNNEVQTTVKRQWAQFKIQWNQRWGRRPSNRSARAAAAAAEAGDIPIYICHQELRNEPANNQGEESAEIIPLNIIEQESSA
T1 sequence (O60896 24-148 partner): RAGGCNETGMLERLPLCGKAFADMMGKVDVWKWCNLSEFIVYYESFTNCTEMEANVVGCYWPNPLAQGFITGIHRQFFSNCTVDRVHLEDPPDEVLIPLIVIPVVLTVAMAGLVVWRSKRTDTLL

[2] = target: T2, human amylin 3(a) receptor (human calcitonin receptor + RAMP-3) in BHK570 cells (Homo sapiens, UniProt O60896+P30988); test: ASSAY (II)a functional assay, human amylin receptor (CRE luciferase); format: cell-based; conditions: for EC50: human amylin receptor functional potency, assay (II), read-out: hAmylin-R funct. EC50
T2 construct: expressed in transfected cells
Outline: (§1)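 BHK cells stably carrying a CRE-luciferase reporter plus calcitonin receptor, or calcitonin receptor with RAMP-3 for the amylin 3(a) receptor, were seeded and kept overnight at 37° C. Compounds were added in assay medium with 10% FBS and 10 mM Hepes, pH 7.4, for 3 hours at 37° C, then luminescence was counted.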

[3] = target: T3, human calcitonin (a) receptor in BHK570 cells (Homo sapiens, UniProt P30988); test: ASSAY (II)a functional assay, human calcitonin receptor (CRE luciferase); format: cell-based; conditions: read-out: hCTR funct. EC50
T3 construct: expressed in transfected cells
T3 sequence (P30988 25-474): T1 sequence (P30988 25-474)
Outline: as §1

[4] = target: T4, rat calcitonin receptor (Rattus norvegicus, UniProt P32214); test: ASSAY (VIII) binding to the rat calcitonin receptor; conditions: Table 7, read-out: rCTR bind IC50
T4 construct: expressed in transfected cells; host or cells: BHK tk'ts 13 (transient, FuGENE 6), membranes
T4 sequence (P32214 25-479 isoform P32214-2 limits assumed): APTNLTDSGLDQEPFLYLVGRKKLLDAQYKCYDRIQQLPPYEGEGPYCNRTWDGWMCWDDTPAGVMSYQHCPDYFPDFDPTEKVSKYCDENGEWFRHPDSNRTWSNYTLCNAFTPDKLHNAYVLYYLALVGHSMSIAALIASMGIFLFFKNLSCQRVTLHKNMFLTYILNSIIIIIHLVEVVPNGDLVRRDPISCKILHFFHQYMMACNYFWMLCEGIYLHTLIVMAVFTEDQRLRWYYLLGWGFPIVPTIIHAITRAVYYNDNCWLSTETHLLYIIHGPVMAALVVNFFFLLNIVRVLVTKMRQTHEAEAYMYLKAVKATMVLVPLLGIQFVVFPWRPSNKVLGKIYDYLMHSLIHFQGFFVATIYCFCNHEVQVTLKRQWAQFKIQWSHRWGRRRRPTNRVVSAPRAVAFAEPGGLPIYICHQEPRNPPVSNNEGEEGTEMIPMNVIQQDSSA
Outline: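 Rat calcitonin receptor is expressed transiently in BHK tk′ts 13 cells cultured in DMEM with 10% FBS. Roughly two days (approximately 48 hours) post-transfection, cells are harvested for membrane preparation.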

[5] = tested on: Sprague Dawley (SD) rats; test: ASSAY (I) efficacy testing on appetite (food intake) using an ad libitum fed rat model; format: in vivo; conditions: rat, 30 nmol/kg
Outline: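 Ad libitum fed SD rats (200–250 g) were housed singly on a reversed light/dark cycle and given one 0.01–3 mg/kg dose ip, po or sc just before lights-off, with 5–8 per dose group plus vehicle controls. Food intake was recorded hourly for 7 h, then at 24 h and sometimes 48 h; Grubbs outliers were excluded.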

[6] = Table 5, selectivity, hCTR bind IC50 / hAmylin-R bind IC50
[7] = Table 5a, selectivity, hCTR bind IC50 / hAmylin-R bind IC50
[8] = Table 5b, selectivity, hCTR bind IC50 / hAmylin-R bind IC50
[9] = Table 5c, selectivity, hCTR bind IC50 / hAmylin-R bind IC50
[10] = Table 7, human binding selectivity, included for comparison
[11] = Table 7a (preferred compounds), human binding selectivity, included for comparison
[12] = ratio of human calcitonin receptor binding IC50 to human amylin receptor binding IC50
[13] = hCTR funct. EC50 divided by hAmylin-R funct. EC50
[14] = hCTR funct. EC50 over hAmylin-R funct. EC50
[15] = human functional selectivity: hCTR funct. EC50 / hAmylin-R funct. EC50

| SMILES | IC50 [1] [nM] | Ratio hCT/hAmylin binding [1, 6] | Ratio hCT/hAmylin binding [1, 7] | Ratio hCT/hAmylin binding [1, 8] | Ratio hCT/hAmylin binding [1, 9] | Ratio hCT/hAmylin binding [1, 10] | Ratio hCT/hAmylin binding [1, 11] | Ratio hCT/hAmylin binding [1, 12] | Ratio hCT/hAmylin funct. [2, 13] | Ratio hCT/hAmylin funct. [2, 14] | EC50 [2] [nM] | Ratio hCT/hAmylin funct. [2, 15] | EC50 [3] [nM] | IC50 [4] [nM] | Food intake reduction 0-24 h 30 nmol/kg (%) [5] [%] | Food intake reduction 24-48 h 30 nmol/kg (%) [5] [%] |
| --- | --- | --- | --- | --- | --- | --- | --- | --- | --- | --- | --- | --- | --- | --- | --- | --- |
| CC[C@H](C)[C@H](NC(=O)[C@H](C)NC(=O)CNC(=O)[C@H](Cc1ccccc1)NC(=O)[C@H](CC(N)=O)NC(=O)[C@@H]1CCCN1C(=O)[C@H](CO)NC(=O)[C@H](CO)NC(=O)[C@H](Cc1c[nH]cn1)NC(=O)[C@H](CCCNC(=N)N)NC(=O)[C@H](CC(C)C)NC(=O)[C@H](Cc1ccccc1)NC(=O)[C@H](CC(N)=O)NC(=O)[C@H](C)NC(=O)[C@H](CC(C)C)NC(=O)[C@H](CCCNC(=N)N)NC(=O)[C@H](CCC(N)=O)NC(=O)[C@@H](NC(=O)[C@H](C)NC(=O)[C@@H]1CSSC[C@H](NC(=O)[C@H](CCCCN)NC(=O)CC[C@H](NC(=O)CCCCCCCCCCCCCCCCCCC(=O)O)C(=O)O)C(=O)N[C@@H](CC(N)=O)C(=O)N[C@@H]([C@@H](C)O)C(=O)N[C@@H](C)C(=O)N[C@@H]([C@@H](C)O)C(=O)N1)[C@@H](C)O)C(=O)N1CCC[C@H]1C(=O)N[C@@H](CO)C(=O)N[C@@H](CO)C(=O)N[C@H](C(=O)N1CCC[C@H]1C(=O)N[C@H](C(=O)NCC(=O)N[C@@H](CO)C(=O)N[C@@H](CCC(=O)O)C(=O)N[C@H](C(=O)N[C@@H](Cc1ccc(O)cc1)C(N)=O)[C@@H](C)O)C(C)C)[C@@H](C)O [Example 28] ({C20 diacid-γGlu}-KCNTATCATQRLANFLRHSSPNFGAIPSSTPVGSETY-NH2; disulfide 2-7 (inferred)) | 0.61 | 20.5 | 20.5 | 20.5 | 20.5 | 20.5 | 20.5 | 20.5 | 9.2 | 9.2 | 0.22 | 9.2 | 2.03 | 54.9 | 49 | 38 |
| CC[C@H](C)[C@H](NC(=O)[C@H](C)NC(=O)CNC(=O)[C@H](Cc1ccccc1)NC(=O)[C@H](CC(N)=O)NC(=O)[C@@H]1CCCN1C(=O)[C@H](CO)NC(=O)[C@H](CO)NC(=O)[C@H](Cc1c[nH]cn1)NC(=O)[C@H](CCCNC(=N)N)NC(=O)[C@H](CC(C)C)NC(=O)[C@H](Cc1ccccc1)NC(=O)[C@H](CC(N)=O)NC(=O)[C@H](C)NC(=O)[C@H](CC(C)C)NC(=O)[C@H](CCCNC(=N)N)NC(=O)[C@H](CCC(N)=O)NC(=O)[C@@H](NC(=O)[C@H](C)NC(=O)[C@@H]1CSSC[C@H](NC(=O)[C@@H](N)CCCCNC(=O)CC[C@H](NC(=O)CCCCCCCCCCCCCCCCCCC(=O)O)C(=O)O)C(=O)N[C@@H](CC(N)=O)C(=O)N[C@@H]([C@@H](C)O)C(=O)N[C@@H](C)C(=O)N[C@@H]([C@@H](C)O)C(=O)N1)[C@@H](C)O)C(=O)N1CCC[C@H]1C(=O)N[C@@H](CO)C(=O)N[C@@H](CO)C(=O)N[C@H](C(=O)N[C@@H](CC(N)=O)C(=O)N[C@H](C(=O)NCC(=O)N[C@@H](CO)C(=O)N[C@@H](CCCCN)C(=O)N[C@H](C(=O)N[C@@H](Cc1ccc(O)cc1)C(N)=O)[C@@H](C)O)C(C)C)[C@@H](C)O [Example 35] (H-K([γGlu-C20 diacid])CNTATCATQRLANFLRHSSPNFGAIPSSTNVGSKTY-NH2; disulfide 2-7; N-terminus assumed) | 0.97 | 50.3 | 50.3 | 50.3 | 50.3 | 50.3 | 50.3 | 50.3 | 15.0 | 15.0 | 0.364 | 15.0 | 5.46 | 61.7 | 51 | 15 |
| CC[C@H](C)[C@H](NC(=O)[C@H](C)NC(=O)CNC(=O)[C@H](Cc1ccccc1)NC(=O)[C@H](CC(N)=O)NC(=O)[C@@H]1CCCN1C(=O)[C@H](CO)NC(=O)[C@H](CO)NC(=O)[C@H](Cc1c[nH]cn1)NC(=O)[C@H](CCCNC(=N)N)NC(=O)[C@H](CC(C)C)NC(=O)[C@H](Cc1ccccc1)NC(=O)[C@H](CC(=O)O)NC(=O)[C@H](C)NC(=O)[C@H](CC(C)C)NC(=O)[C@H](CCCNC(=N)N)NC(=O)[C@H](CCC(N)=O)NC(=O)[C@@H](NC(=O)[C@H](C)NC(=O)[C@@H]1CSSC[C@H](NC(=O)[C@@H](N)CCCCNC(=O)CC[C@H](NC(=O)CCCCCCCCCCCCCCCCCCC(=O)O)C(=O)O)C(=O)N[C@@H](CC(N)=O)C(=O)N[C@@H]([C@@H](C)O)C(=O)N[C@@H](C)C(=O)N[C@@H]([C@@H](C)O)C(=O)N1)[C@@H](C)O)C(=O)N1CCC[C@H]1C(=O)N[C@@H](CO)C(=O)N[C@@H](CO)C(=O)N[C@H](C(=O)N[C@@H](CC(N)=O)C(=O)N[C@H](C(=O)NCC(=O)N1CCC[C@H]1C(=O)N[C@@H](CCCNC(=N)N)C(=O)N[C@H](C(=O)N[C@@H](Cc1ccc(O)cc1)C(N)=O)[C@@H](C)O)C(C)C)[C@@H](C)O [Example 129] (H-K([γGlu-C20 diacid])CNTATCATQRLADFLRHSSPNFGAIPSSTNVGPRTY-NH2; disulfide 2-7 (inferred); N-terminus assumed) | 0.281 | 151.1 | 151.1 | 151.1 | 151.1 | 151.1 | 151.1 | 151.1 | 24.9 | 24.9 | 0.146 | 24.9 | 3.64 | 58.5 | – | – |
